Each block holds one molecule with its values, some of them ahead of it.
Columns and labels:
[1] = target: T1, Peroxisome proliferator-activated receptor delta (Homo sapiens, UniProt Q03181); type: functional
T1 sequence (Q03181 whole entry): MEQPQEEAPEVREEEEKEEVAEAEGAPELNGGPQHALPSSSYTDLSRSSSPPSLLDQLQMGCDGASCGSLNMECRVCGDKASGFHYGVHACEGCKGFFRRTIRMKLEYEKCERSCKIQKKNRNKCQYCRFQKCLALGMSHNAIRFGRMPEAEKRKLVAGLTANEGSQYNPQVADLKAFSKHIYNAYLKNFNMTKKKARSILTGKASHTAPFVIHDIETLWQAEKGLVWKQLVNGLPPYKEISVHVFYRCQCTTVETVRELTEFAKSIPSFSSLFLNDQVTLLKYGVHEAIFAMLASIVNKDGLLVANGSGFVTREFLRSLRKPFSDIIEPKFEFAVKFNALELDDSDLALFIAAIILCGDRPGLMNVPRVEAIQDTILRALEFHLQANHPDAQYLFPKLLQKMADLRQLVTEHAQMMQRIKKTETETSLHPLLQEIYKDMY

[2] = target: T1, Peroxisome proliferator-activated receptor delta; type: cell-based, CV-1
[3] = target: T2, Peroxisome proliferator-activated receptor alpha (Homo sapiens, UniProt Q07869); type: functional
T2 sequence (Q07869 whole entry): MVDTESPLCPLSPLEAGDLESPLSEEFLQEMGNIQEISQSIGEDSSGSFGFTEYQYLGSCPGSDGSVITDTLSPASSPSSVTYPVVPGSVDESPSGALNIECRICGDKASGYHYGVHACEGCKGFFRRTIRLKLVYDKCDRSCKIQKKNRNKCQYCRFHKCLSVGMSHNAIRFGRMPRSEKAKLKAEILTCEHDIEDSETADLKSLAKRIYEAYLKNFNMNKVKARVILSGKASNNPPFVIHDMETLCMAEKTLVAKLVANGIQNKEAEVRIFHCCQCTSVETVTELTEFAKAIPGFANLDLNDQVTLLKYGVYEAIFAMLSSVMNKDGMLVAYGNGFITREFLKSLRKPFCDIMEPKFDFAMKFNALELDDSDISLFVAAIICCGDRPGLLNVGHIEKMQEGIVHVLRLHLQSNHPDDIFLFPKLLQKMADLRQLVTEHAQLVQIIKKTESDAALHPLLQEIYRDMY

[4] = target: T2, Peroxisome proliferator-activated receptor alpha; type: cell-based, CV-1
[5] = target: T1, Peroxisome proliferator-activated receptor delta; type: cell-based; settings: cv-1
[6] = target: T1, Peroxisome proliferator-activated receptor delta
[7] = target: T1, Peroxisome proliferator-activated receptor delta; remark: listed apart in the source

SMILES: Cc1oc(-c2ccccc2)nc1CCOc1ccc(C[C@](C)(Oc2ccccc2)C(=O)O)cc1
IC50 [1]: 5520 nM | EC50 ([2]; cv-1): Not Active

SMILES: Cc1oc(-c2ccccc2)nc1CCOc1ccc(CC(Oc2ccccc2)C(=O)O)cc1 (stereo not given)
IC50 [1]: 7040 nM | EC50 ([2]; cv-1): Not Active | IC50 [3]: 1110 nM | EC50 [4]: 833 nM

SMILES: Cc1oc(-c2cccc(-c3ccccc3)c2)nc1CCOc1ccc(CC(C)(Oc2ccccc2)C(=O)O)cc1 (stereo not given)
EC50 [5]: Not Active | IC50 [3]: 167 nM | EC50 [4]: 7 nM | IC50 [6]: Not Active

SMILES: Cc1oc(C2CCCCC2)nc1CCOc1ccc(C[C@](C)(Oc2ccccc2)C(=O)O)cc1
IC50 [1]: 9690 nM | EC50 ([2]; cv-1): Not Active

SMILES: Cc1oc(-c2cccs2)nc1CCOc1ccc(C[C@](C)(Oc2ccccc2)C(=O)O)cc1 [LY-510929]
EC50 [5]: Not Active

SMILES: CCC(Cc1ccc(OCCc2nc(-c3ccccc3)oc2C)cc1)(Oc1ccccc1)C(=O)O (stereo not given)
IC50 [1]: 5070 nM | EC50 ([2]; cv-1): Not Active | IC50 [3]: 473 nM | EC50 [4]: 75 nM

SMILES: Cc1oc(C2CCCCC2)nc1CCOc1ccc(CC(C)(Oc2ccccc2)C(=O)O)cc1 (stereo not given)
IC50 [7]: Not Active | EC50 [5]: Not Active

Other lines, results leading:

IC50 [1]: 2680 nM | EC50 ([2]; read-out: EC50): 3010 nM
SMILES: Cc1oc(-c2ccccc2)nc1CCOc1ccc(C[C@@](C)(Oc2ccccc2)C(=O)O)cc1

EC50 ([2]; cv-1): Not Active
SMILES: Cc1oc(-c2cccs2)nc1CCOc1ccc(C[C@@](C)(Oc2ccccc2)C(=O)O)cc1

IC50 [7]: Not Active | EC50 [5]: Not Active | IC50 [3]: 503 nM | EC50 [4]: 69 nM
SMILES: Cc1oc(-c2ccc(-c3ccccc3)cc2)nc1CCOc1ccc(CC(C)(Oc2ccccc2)C(=O)O)cc1 (stereo not given)

EC50 [5]: Not Active | IC50 [1]: 7110 nM
SMILES: Cc1oc(-c2ccccc2)nc1CCOc1ccc(CC(C)(Oc2ccccc2)C(=O)O)cc1 (stereo not given)

IC50 [1]: 7230 nM | EC50 ([2]; cv-1): Not Active | IC50 [3]: 1850 nM | EC50 [4]: 2560 nM
SMILES: CCCCC(Cc1ccc(OCCc2nc(-c3ccccc3)oc2C)cc1)(Oc1ccccc1)C(=O)O (stereo not given)

EC50 [5]: Not Active | IC50 [1]: 4450 nM
SMILES: Cc1oc(-c2ccccc2)nc1CCOc1ccc(OC(C)(Cc2ccccc2)C(=O)O)cc1 (stereo not given)

EC50 [5]: Not Active
SMILES: Cc1oc(-c2cccs2)nc1CCOc1ccc(CC(C)(Oc2ccccc2)C(=O)O)cc1 (stereo not given)

From ChEMBL document CHEMBL1148303, “Design and synthesis of alpha-aryloxy-alpha-methylhydrocinnamic acids: a novel class of dual peroxisome proliferator-activated receptor alpha/gamma agonists” (J Med Chem, 2004)
